Source: EP1061897B1, “GLYCYLGLYCINE OLEAMIDE IN DERMO-COSMETOLOGY” (Pierre Fabre Dermo-Cosmetique, priority 1998, dated 1999)
Residues, ends and D or L forms follow the SMILES beside them. *: point of attachment. Oleoyl = CCCCCCCC/C=C\CCCCCCCC(=O)*

Tests used:
collagène de type I = experiment: in vitro acellular glycation of type I collagen, thiobarbituric acid assay; type: biochemical; settings: glucose 250 mM, 37°C, 8 days, figure 1
Experimental: L'activité inhibitrice de la glycylglycine est évaluée et comparée à celle de l'aminoguanidine en utilisant un modèle in vitro, acellulaire, de glycation du collagène de type I, selon le protocole suivant.
L'actif anti-glyquant est introduit dans une solution contenant du glucose 250 mM et du collagène de type I. L'aminoguanidine agit notamment en bloquant le groupement carbonyle du produit d'Amadori, stoppant ainsi la glycation à son stade précoce (M. Brownlee et coll., Science, 1986 (6), 232, 1629-1632).
Le mélange est incubé à 37°C pendant 8 jours puis le glucose non fixé est éliminé par dialyse. Après lyophilisation du collagène, on procède à un dosage à l'acide thiobarbiturique pour déterminer le taux de glycation.
Cette méthode permet le dosage de sucres liés aux cétoamines.
Le lyophilisat, après être pesé, est dissous dans l'acide oxalique 0,5 M. On laisse incuber à 120°C pendant 1 heure, puis à 40°C pendant 45 min après avoir ajouté de l'acide thiobarbiturique à 50 mM.
La densité optique du mélange, lue à 443 nm, est proportionnelle au taux de glycation exprimé en nmoles HMF formé par mg de lyophilisat.

élastase = experiment: in vitro acellular anti-elastase test, elastase diffusion in agarose gel containing orcein-stained insoluble elastin; type: biochemical; settings: figure 2
Text: La méthode utilisée est une technique in vitro acellulaire, basée sur la diffusion d'élastase dans un gel d'agarose contenant de l'élastine insoluble colorée par l'orcéïne et dispersée dans le gel avec ou sans principe actif. La lecture du diamètre de lyse permet de calculer le pourcentage d'inhibition de l'enzyme par le principe actif.

fibroblastes = experiment: Bell-type dermal equivalent, contraction kinetics of fibroblast-seeded collagen lattice; type: cell-based; settings: followed over 7 days; 0,005 % oléamide de glycylglycine, 0,003 % acide oléique, 0,002 % gly-gly; figure 3
Text: Pour objectiver cette activité, on utilise le modèle cellulaire de derme équivalent de type Bell. Il permet, grâce à une mise en culture de fibroblastes sur un support de collagène, de reproduire in vitro une structure tissulaire tridimensionnelle et de rendre compte des interactions fibroblaste-matrice, le fibroblaste étant impliqué dans le maintien de la structure dermique.
La capacité des fibroblastes, ensemencés dans un milieu défini avec ou sans actif, à organiser les fibres de collagène les unes par rapport aux autres et de les faire se rétracter, se concrétise par une diminution de surface de ce derme. Ce test traduit la capacité du fibroblaste à modeler, par ce biais, un véritable tissu. On suit donc la cinétique de contraction de ce derme sur 7 jours, cette cinétique étant liée au métabolisme de la cellule.
Les concentrations en actifs employées correspondent à des doses auxquelles ces actifs se sont avérés non cytotoxiques et non prolifératifs.

activité anti-élastase (aire de lyse) (élastase) | SMILES | activité anti-glyquante (taux de glycation, nmoles HMF/mg) (collagène de type I; at 100 mM, compared with aminoguanidine) | activité anti-glyquante (taux de glycation, nmoles HMF/mg) (collagène de type I; 1 mM, 10 mM and 100 mM) | cinétique de rétraction (pourcentage de rétraction) (fibroblastes)
 | NCC(=O)NCC(=O)O [glycylglycine] (H-Gly-Gly-OH) | activité équivalent à celle de l'aminoguanidine | avec un effet-dose | 
activité anti-élastase importante | CCCCCCCC/C=C\CCCCCCCC(=O)NCC(=O)NCC(=O)O [oléamide de glycylglycine] (Oleoyl-Gly-Gly-OH) |  |  | plus efficace que l'acide oléique, l'association acide oléique/glycylglycine, la glycylglycine
